Source: patent publication US4710498A, “Pyridyloxy derivatives” (Ikeda Mohando Co., Ltd., priority 1984, dated 1987)
Where two headings read alike, the source gives them in different places.

Experiments:
[1] = system: Gastric Acid Secretion Induced by Histamine; test: Inhibition effect on gastric acid secretion induced by histamine in pylorus ligated rat (subcutaneous); type: in vivo, male Wistar rat; conditions: Rattus norvegicus; 0.2 mg/kg SC; histamine 3 mg/kg SC; average of five runs; read-out: Secretion of Gastric Acid in Rat, Inhibition Rate (%)
Protocol: (§1) A male Wistar rat having a body weight of about 160 g and which had not fed for 24 hours was anesthetized by an intraperitoneal dose of 1.2 g/kg of urethane. After ligating of pylorus and esophagus, the gaster anterior was incised and fitting with a double polyethylene cannula. The wall of the stomach was rinsed with 5 ml of saline at 30 minutes intervals, and the quantity of gastric acid contained in each rinsing solution was measured by titration.
The basal acid secretion was initially measured three times, and then 0.2 mg/kg of each of the compounds of this invention was administered subcutaneously and 3 mg/kg of histamine was administered subcutaneously after the lapse of an additional 30 minutes.
(§2) The quantity of gastric acid secreted after the operation was measured continuously for 3 hours. Within that measurement interval, three time points at which the increase in acid secretion reached a maximum level were selected, and the average quantity of gastric acid secreted at those time points was taken as the increase in acid secretion, which was compared with the increase in acid secretion of the control group to calculate the percent inhibition for secretion of gastric acid (Table 1). [formula] (The result was shown as the average value of five runs.)

[2] = biological target: T1, Histamine H2 -Receptor (Cavia porcellus, UniProt P47747); test: biochemical; set-up: species or system male Hartley guinea pig; conditions: negative logarithm of molar concentration; isolated guinea pig atrium; read-out: Antagonistic Action against Histamine H2 -Receptor (pA2) Determined by Using Atrium isolated from Guinea Pig (converted)
T1 construct: from tissue; host or cells: isolated right atrium of male Hartley guinea pig
Protocol: A male Hartley guinea pig having a body weight of about 400 g was killed by cervical dislocation, and the atrium thereof was isolated and was suspended in an organ bath containing […] of a modified Ringer solution and subjected to a tension of 1 g. The number of heart beats under such condition was recorded using a polygraph.
Initially, from 1×10^-7 mol to 3×10^-4 mol of histamine was allowed to act accumulatively to depict the curve of the dosage-reaction relationship. Likewise, the curve of the dosage of histamine-reaction relationship was depicted in the presence of 5×10^-7 mol to 1×10^-6 mol of the test sample which was injected 3 minutes before. The negative logarithm (pA2) of the molar concentration of the test sample required for moving the curve obtained by single administration of histamine parallel to the right side by a two-times concentration was calculated.

[3] = system: Gastric Acid Secretion Induced by Histamine; test: Inhibitory effect of intraduodenally administered compounds on gastric acid secretion induced by histamine in rat; type: in vivo, male Wistar rat; conditions: for ED50: Rattus norvegicus, intraduodenal, 30 minutes before histamine SC, read-out: Median effective dose (ED50) inhibiting Gastric Acid Section (95% Reliability Limit); for Efficacy Ratio relative to Cimetidine (Cimetidine = 1): rat, in vivo
Protocol: The test was conducted by an improved method based on that reported by Watanabe et al., in "Pharmacometrics", Vol. 3, No. (1), pages 7 to 14 (1969).
as §1, §2

[4] = Acute toxicity test on mice dosed orally; type: in vivo; conditions: mouse, in vivo, po
Protocol: (§3) Male ddy mice each having a body weight of about 22 g and which had not eaten for 8 hours were orally dosed with the test samples, and the general symptoms and fatalities were observed from the time immediately following the administration to 14 days after the administration.
(§4) The median lethal dose (LD50) was calculated in accordance with the Litchfield and Wilcoxon Method.

[5] = system: Mice; test: Acute toxicity test on mice dosed orally; type: in vivo; conditions: orally, mice
Protocol: as §3, §4

[6] = P.O., 14 days observation, Litchfield and Wilcoxon Method, read-out: Median lethal dose (LD50)

T1 sequence (P47747 whole entry): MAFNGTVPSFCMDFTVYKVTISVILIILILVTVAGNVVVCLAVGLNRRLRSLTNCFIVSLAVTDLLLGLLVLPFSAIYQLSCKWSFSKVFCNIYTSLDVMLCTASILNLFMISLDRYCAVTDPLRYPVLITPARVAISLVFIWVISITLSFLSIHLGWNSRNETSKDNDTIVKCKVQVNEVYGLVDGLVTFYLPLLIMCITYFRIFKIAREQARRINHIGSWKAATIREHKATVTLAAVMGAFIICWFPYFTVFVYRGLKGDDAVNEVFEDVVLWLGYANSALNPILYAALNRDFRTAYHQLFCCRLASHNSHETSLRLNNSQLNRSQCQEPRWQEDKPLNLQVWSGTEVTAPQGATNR

Compound Nc1c(NC/C=C\COc2cc(CN3CCCCC3)ccn2)c(=O)c1=O [Ex. 1, 1-amino-2-[4-<4-(1-piperidinomethyl)pyridyl-2-oxy>-cis-2-butenylamino]-1-cyclobuten-3,4-dione] has an inhibition in vivo at 0.2 mg/kg [1] of 54%, a Kb [2] of 339 nM and an ED50 ([3]; first series (Table 2-1)) of 0.15 mg/kg. The LD50 at 336 h [4] was greater than 1500 mg/kg.

Compound CNc1c(NC/C=C\COc2cc(CN3CCCCC3)ccn2)c(=O)c1=O [Ex. 2, 1-methylamino-2-[4-<4-(1-piperidinomethyl)pyridyl-2-oxy>-cis-2-butenylamino]-1-cyclobuten-3,4-dione] has an inhibition in vivo at 0.2 mg/kg [1] of 60%, a Kb [2] of 174 nM and an ED50 ([3]; first series (Table 2-1)) of 0.27 mg/kg. The “Efficacy Ratio relative to Cimetidine (Cimetidine = 1)” value (“Efficacy Ratio relative to Cimetidine” below) [3] was 25.9 and the LD50 at 336 h [4, 6] was greater than 1500 mg/kg.

Work on Nc1n[s+]([O-])nc1NC/C=C/COc1cc(CN2CCCCC2)ccn1 (stereo not drawn) [Ex. 9, 3-amino-4-[4-<4-(1-piperidinomethyl)pyridyl-2-oxy>-trans-2-butenylamino]-1,2,5-thiadiazole-1-oxide] yielded an inhibition in vivo at 0.2 mg/kg [1] of 62%, a Kb [2] of 339 nM and an ED50 ([3]; first series (Table 2-1)) of 0.46 mg/kg. For the same compound, the “Efficacy Ratio relative to Cimetidine” value [3] was 15.2 and the LD50 at 336 h [4, 6] was greater than 1500 mg/kg.

CN(C)Cc1ccnc(OC/C=C\CNc2n[s+]([O-])nc2N)c1 (stereo not drawn) [Ex. 11, 3-amino-4-<4-(4-dimethylaminomethylpyridyl-2-oxy)-cis-2-butenylamino>-1,2,5-thiadiazole-1-oxide] gave an inhibition in vivo at 0.2 mg/kg [1] of 101%, a Kb [2] of 490 nM and an LD50 at 336 h [4, 6] greater than 1500 mg/kg.

CNc1n[s+]([O-])nc1NC/C=C\COc1cc(CN(C)C)ccn1 (stereo not drawn) [Ex. 12, 3-methylamino-4-<4-(4-dimethylaminomethylpyridyl-2-oxy)-cis-2-butenylamino>-1,2,5-thiadiazole-1-oxide] gave an inhibition in vivo at 0.2 mg/kg [1] of 91%, a Kb [2] of 263 nM and an LD50 at 336 h [4, 6] greater than 1500 mg/kg.

For Cn1nc(N)nc1NC/C=C\COc1cc(CN2CCCCC2)ccn1 [Ex. 19, 3-amino-1-methyl-5-[4-<4-(1-piperidinomethyl)pyridyl-2-oxy>-cis-2-butenylamino]-1H-1,2,4-triazole], the inhibition in vivo at 0.2 mg/kg [1] was 3%, the Kb [2] was 759 nM and the LD50 at 336 h [4, 6] was greater than 1500 mg/kg.

With O=c1nc(NC/C=C\COc2cc(CN3CCCCC3)ccn2)[nH]cc1Cc1cccnc1 [Ex. 22, 2-[4-<4-(1-piperidinomethyl)pyridyl-2-oxy>-cis-2-butenylamino]-5-(3-pyridylmethyl)-1H-pyrimidin-4-one] the inhibition in vivo at 0.2 mg/kg [1] was 40%, the Kb [2] was 363 nM and the “acute toxicity / LD50 (in words)” value [5] was “lower LD50 values than that of Cimetidine”. The LD50 at 336 h [4, 6] was 1600 mg/kg.

For Nc1n[nH]c(=O)nc1NC/C=C\COc1cc(CN2CCCCC2)ccn1 [Ex. 27, 6-amino-5-[4-<4-(1-piperidinomethyl)pyridyl-2-oxy>-cis-2-butenylamino]-1,2,4-triazin-3-one], the inhibition in vivo at 0.2 mg/kg [1] was 88%, the Kb [2] was 275 nM and the LD50 at 336 h [4, 6] was greater than 1500 mg/kg.

For Cn1nc(N)c(NC/C=C\COc2cc(CN3CCCCC3)ccn2)nc1=O [Ex. 29, 6-amino-2-methyl-5-[4-<4-(1-piperidinomethyl)pyridyl-2-oxy>-cis-2-butenylamino]-1,2,4-triazin-3-one], the inhibition in vivo at 0.2 mg/kg [1] was 74%, the Kb [2] was 708 nM and the “acute toxicity / LD50 (in words)” value [5] was “lower LD50 values than that of Cimetidine”. For the same compound, the LD50 at 336 h [4, 6] was 1250 mg/kg.

Compound Nc1c(NC/C=C\COc2cccc(CN3CCCCC3)n2)c(=O)c1=O [Ex. 32, 1-amino-2-[4-<6-(1-piperidinomethyl)pyridyl-2-oxy>-cis-2-butenylamino]-1-cyclobuten-3,4-dione] has an inhibition in vivo at 0.2 mg/kg [1] of 33%, a Kb [2] of 490 nM and an ED50 ([3]; second series (Table 2-2)) of 0.25 mg/kg. The “Efficacy Ratio relative to Cimetidine” value [3] was 32.8.

With NC1=NS(=O)(=O)N=C1NC/C=C\COc1cccc(CN2CCCCC2)n1 [Ex. 36, 3-amino-4-[4-<6-(1-piperidinomethyl)pyridyl-2-oxy>-cis-2-butenylamino]-1,2,5-thiadiazole-1,1-dioxide] the inhibition in vivo at 0.2 mg/kg [1] was 72%, the Kb [2] was 263 nM and the ED50 ([3]; second series (Table 2-2)) was 0.2 mg/kg. The “Efficacy Ratio relative to Cimetidine” value [3] was 41.0.
